Results from ChEMBL document CHEMBL3797132, “State of affairs: Design and structure-activity relationships of reversible P2Y12 receptor antagonists” (Bioorg Med Chem Lett, 2016).

How the values were obtained:
[1] = Terminal half life in beagle dog at 10 mg/kg, po administered via oral gavage by LC/MS analysis; type: ADME, organism-based, Canis lupus familiaris; details: in vivo, read-out: beta t1/2 (converted)
P2Y purinoceptor 12 [2] = target: T1, P2Y purinoceptor 12 (Homo sapiens, UniProt Q9H244); assay: Displacement of [3H]-2-Mes-ADP from human P2Y12 receptor
[3] = Cmax in beagle dog at 10 mg/kg, po administered via oral gavage by LC/MS analysis; type: ADME, organism-based, Canis lupus familiaris; details: in vivo
P2Y purinoceptor 12 [4] = target: T1, P2Y purinoceptor 12; assay: Binding affinity to P2Y12 receptor (unknown origin)
[5] = Clearance in rat; type: ADME, organism-based; details: in vivo
P2Y purinoceptor 12 [6] = target: T1, P2Y purinoceptor 12; assay: Antagonist activity at P2Y12 receptor (unknown origin) by GTPgammaS binding assay; type: functional
P2Y purinoceptor 12 [7] = target: T1, P2Y purinoceptor 12; assay: Displacement of [3H]-2-Mes-ADP from human P2Y12 receptor in platelets by scintillation counter
P2Y purinoceptor 12 [8] = target: T1, P2Y purinoceptor 12; assay: Antagonist activity at P2Y12 receptor (unknown origin)
[9] = Oral bioavailability in rat; type: ADME, organism-based; details: in vivo

T1 sequence (Q9H244 whole entry): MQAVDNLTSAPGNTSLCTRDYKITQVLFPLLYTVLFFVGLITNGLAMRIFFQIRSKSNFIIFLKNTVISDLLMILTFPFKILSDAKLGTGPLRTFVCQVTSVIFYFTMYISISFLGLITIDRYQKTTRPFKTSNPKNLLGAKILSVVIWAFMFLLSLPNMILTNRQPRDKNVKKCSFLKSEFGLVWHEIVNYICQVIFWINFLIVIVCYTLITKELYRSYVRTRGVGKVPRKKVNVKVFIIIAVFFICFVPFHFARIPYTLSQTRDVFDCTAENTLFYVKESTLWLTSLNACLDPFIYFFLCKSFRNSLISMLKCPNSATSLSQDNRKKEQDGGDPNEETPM

## CCOC(=O)N1CCN(C(=O)[C@H](CCC(=O)O)NC(=O)c2cc(OC(C)(C)C(=O)O)c3ccc(C)cc3n2)CC1
[1]
  half-life: 7 h
P2Y purinoceptor 12 [2]
  IC50: 5.3 nM

## CCOC(=O)N1CCN(C(=O)[C@H](CCC(=O)O)NC(=O)c2cc(OC(C)(C)C(=O)OCC)c3ccc(C)cc3n2)CC1
[1]
  half-life: 0.2 h
P2Y purinoceptor 12 [2]
  IC50: 29 nM
[3]
  Cmax: 14 µM

## CCc1cnc(-c2cc(C#N)c(N3CC(C(=O)NS(=O)(=O)c4ccc(Cl)s4)C3)nc2C)o1
P2Y purinoceptor 12 [4]
  IC50: 440 nM
[5]
  clearance: 16 mL/min/kg
P2Y purinoceptor 12 [6]
  IC50: 22 nM

## CNc1cc2[nH]c(=O)n(-c3ccc(NC(=O)NS(=O)(=O)c4ccc(Cl)s4)cc3)c(=O)c2cc1F [ELINOGREL]
P2Y purinoceptor 12 [7]
  IC50: < 10 nM

## CCOC(=O)c1cc(C#N)c(N2CC(C(=O)NS(=O)(=O)c3ccc(Cl)s3)C2)nc1C
P2Y purinoceptor 12 [4]
  IC50: 60 nM
[5]
  clearance: 3 mL/min/kg

## CCCSc1nc(N[C@@H]2C[C@H]2c2ccc(F)c(F)c2)c2nnn([C@@H]3C[C@H](OCCO)[C@@H](O)[C@H]3O)c2n1 [TICAGRELOR]
P2Y purinoceptor 12 [8]
  IC50: 5.01 nM

## CCOC(=O)c1cc(C#N)c(N2CCN(C(=O)NS(=O)(=O)c3ccc(Cl)s3)CC2)nc1C
P2Y purinoceptor 12 [4]
  IC50: 40 nM
[5]
  clearance: 16 mL/min/kg
[9]
  bioavailability: 15%
P2Y purinoceptor 12 [6]
  IC50: 70 nM
